Measurements taken from patent publication US8987193B2, “Nisin derivatives and the use thereof” (University College Cork—National University of Ireland, Cork, priority 2008, dated 2015).
Entries after “also recorded” stand apart in the source; their conditions may differ. Ends that are not written are not given here.

System: indicator strains
Test: Deferred antagonism assays, various indicator strains (summary)
Assay type: cell-based
Conditions: for Target strain against which the hinge mutant was selected for enhanced bioactivity: XX and XXX banks, L. lactis HP*: enhanced or equal; for Target strain against which the hinge mutant was selected for enhanced bioactivity / Strain(s) against which the derivative (producing strain) displays enhanced bioactivity: relative to nisin A-producing control; for number of targets with enhanced activity: of the 8 additional targets tested; for Strain(s) against which the derivative (producing strain) displays enhanced bioactivity: value = strains listed
Description: Deferred antagonism assays were performed by replicating strains on GM17 or GM17 x-gal agar plates and allowing them to grow overnight before overlaying with either GM17/BHI/TS/MH agar (0.75% w/v agar) seeded with the appropriate indicator strain. Zone size was calculated as the diameter of the zone of clearing minus the diameter of bacterial growth (5 mm) For higher throughput screening of N20PXX, XM21VX, XXK22T and XXX banks deferred antagonism assays were performed by replicating strains using a 96 pin replicator (Boekel) or spotting 5 μl of a fresh overnight culture on GM17 agar plates and allowing them to grow overnight. […] Additional sets of indicators were employed to further assess/reassess the bioactivity of a number of strains. […] For well-diffusion assays molten agar was cooled to 48° C. and seeded with the appropriate indicator strain. The inoculated medium was rapidly transferred into sterile Petri plates in 50 ml volumes, allowed to solidify and dried. Wells (4.6 mm in diameter) were then made in the seeded plates. Purified nisin and mutant nisins were resuspended in 0.005% acetic acid, serially diluted, 50 μl volumes were dispensed into the aforementioned wells and the plates incubated at 37° C. overnight. Bioactivity was expressed as arbitrary units/ml (AU/ml) and calculated as the reciprocal of the highest dilution that gave a definite zone multiplied by the conversion factor (i.e. 20 when 50 μl was used) (Ryan et al., 1996).

| Substance | Target strain against which the hinge mutant was selected for enhanced bioactivity | number of targets with enhanced activity | Strain(s) against which the derivative (producing strain) displays enhanced bioactivity |
| --- | --- | --- | --- |
| NisinA PAQ (ITSISLCTPGCKTGALMGCPAQTATCHCSIHVSK; not fully specified (bridges); also: lantibiotic nisin-A: lanthionine rings and dehydrated residues, places not given here; UniProt P13068 24-57, looked up, variant N20P M21A K22Q) [nisin A hinge variant PAQ (i.e. N20P, M21A, K22Q)] | L. lactis HP* | 3 | S. agalactiae ATCC13813 and strain B and S. aureus NCDO1499 |
| NisinA PGA (ITSISLCTPGCKTGALMGCPGATATCHCSIHVSK; not fully specified (bridges); also: lantibiotic nisin-A: lanthionine rings and dehydrated residues, places not given here; UniProt P13068 24-57, looked up, variant N20P M21G K22A) [nisin A hinge variant PGA (i.e. N20P, M21G, K22A)] | L. lactis HP* | 3 | S. agalactiae ATCC13813 and strain B and S. aureus NCDO1499 |
| NisinA PHT (ITSISLCTPGCKTGALMGCPHTTATCHCSIHVSK; not fully specified (bridges); also: lantibiotic nisin-A: lanthionine rings and dehydrated residues, places not given here; UniProt P13068 24-57, looked up, variant N20P M21H K22T) [nisin A hinge variant PHT (i.e. N20P, M21H, K22T)] | Strep. agalactiae ATCC 13813 | 3 | Strep. agalactiae ATCC 13813 and Strain B, and L. lactis MG1363; also recorded: Strep. agalactiae ATCC 13813, L. lactis MG1363, S. agalactiae |
| NisinA PIH (ITSISLCTPGCKTGALMGCPIHTATCHCSIHVSK; not fully specified (bridges); also: lantibiotic nisin-A: lanthionine rings and dehydrated residues, places not given here; UniProt P13068 24-57, looked up, variant N20P M21I K22H) [nisin A hinge variant PIH (i.e. N20P, M21I, K22H)] | L. lactis HP* | 1 | S. agalactiae Strain B |
| NisinA PIT (ITSISLCTPGCKTGALMGCPITTATCHCSIHVSK; not fully specified (bridges); also: lantibiotic nisin-A: lanthionine rings and dehydrated residues, places not given here; UniProt P13068 24-57, looked up, variant N20P M21I K22T) [nisin A hinge variant PIT (i.e. N20P, M21I, K22T)] | L. lactis HP* | 3 | S. agalactiae ATCC13813 and strain B and S. aureus NCDO1499 |
| NisinA PIV (ITSISLCTPGCKTGALMGCPIVTATCHCSIHVSK; not fully specified (bridges); also: lantibiotic nisin-A: lanthionine rings and dehydrated residues, places not given here; UniProt P13068 24-57, looked up, variant N20P M21I K22V) [nisin A hinge variant PIV (i.e. N20P, M21I, K22V)] | L. lactis HP* | 3 | S. agalactiae ATCC13813 and strain B and S. aureus NCDO1499 |
| NisinA PMA | Strep. agalactiae ATCC 13813 | 1 | Strep. agalactiae ATCC 13813 and S. aureus DPC5246 |
| PHM: nisin A hinge variant PHM (i.e. N20P, M21H, K22M) (ITSISLCTPGCKTGALMGCPHMTATCHCSIHVSK; not fully specified (bridges); also: lantibiotic nisin-A: lanthionine rings and dehydrated residues, places not given here; UniProt P13068 24-57, looked up, variant N20P M21H K22M) | Strep. agalactiae ATCC 13813 | 2 | Strep. agalactiae ATCC 13813 and Strain B; also recorded: Strep. agalactiae ATCC 13813, S. agalactiae Strain B |
